Measurements taken from paper PMC10064984, “Anti-cyclooxygenase, anti-glycation, and anti-skin aging effect of Dendrobium officinale flowers’ aqueous extract and its phytochemical validation in aging” (Frontiers in Immunology, 2023).
Where “and” joins values, the source holds several entries; their conditions need not be identical. Equal values may be shown once.

What was measured:
Format in all cases: biochemical
[1] = Fluorescent AGEs formation in a BSA-fructose/glucose system; details: for inhibition of fluorescent AGEs formation (BSA-抗糖化), 平均 (mean): mean of 3
Description: Glycated protein was prepared in vitro by incubating BSA in the presence of D-glucose (GLC) and D-fructose (FRC). The DOF extract and specific standards were dissolved in DMSO:water (1:4). […] The assay was performed in triplicate, and AG was used as a positive control. The percentage inhibition of fluorescent AGE formation was calculated using the following equation: […] Where IF sample is fluorescence intensity in the presence of samples and BSA, IF sample control is fluorescence intensity in the presence of samples without BSA, IF control is fluorescence intensity without samples, and IF blank control is fluorescence intensity without samples and BSA.

DPPH· scavenging = assay: DPPH· scavenging;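 note: colourimetric DPPH radical scavenging in 96-well plates, absorbance read-out, percent inhibition relative to ethanol control absorbance, IC50 derived graphically from dose-inhibition curves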
[2] = ABTS·+ decolourisation capacity
Description: Fast colourimetric methods were slightly modified for the in vitro assessment of DPPH· scavenging ([19]), ABTS·+ decolourisation capacity ([20]), and total antioxidant capacity of FRAP ([21]). The stock solutions of derivatisation reagents were diluted as follows before measurement: DPPH was diluted with absolute ethanol until the absorbance was 0.8 ± 0.05 at λ = 517 nm. ABTS working solution was prepared with phosphate buffer (0.2 M, pH 7.4) to display absorbance of 0.8 ± 0.05 at λ = 729 nm, based on a previous study ([22]). The FRAP solution was prepared according to the instructions of the FRAP kit. Absorbances were measured using an automatic microplate reader (Molecular Group Ltd., USA), and all analyses were performed using 96-well plates. All measurements were performed in triplicate, and Trolox was used as a positive control.
For ABTS·+ decolourisation capacity, 100 μl of ABTS working solution was mixed with 200 μl of sample solution, and the absorbance was recorded after 10 min at 729 nm. Phosphate buffer (0.2 M, pH 7.4) was used as a negative control.
DPPH· and ABTS·+ radical scavenging activities of the tested sample were both calculated using the following formula:
% inhibition = (A control − A sample)/A control × 100
Where A control and A sample represent the absorbance of the control and test samples, respectively. The IC50 was calculated graphically from the dose-inhibition curves.

[3] = FRAP total antioxidant capacity; details: for 标准曲线对应浓度 mM FeSO4 (FRAP, FeSO4 equivalent from standard curve): individual replicates; for 标准曲线对应浓度 mM FeSO4, mean: mean of 3;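 for all read-outs here: colourimetric FRAP kit assay read as absorbance in 96-well plates, values as mM FeSO4 via standard curve, EC1 being sample concentration matching 1.0 mmol/L FeSO4, Trolox positive control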
COX-2 = target: T1, COX-2 (Homo sapiens, UniProt P35354); assay: Anti-COX-2 assay (COX-2 Inhibitor Screening Kit); details: single replicates
T1 construct: purchased Beyotime S0168
T1 sequence (P35354 18-604): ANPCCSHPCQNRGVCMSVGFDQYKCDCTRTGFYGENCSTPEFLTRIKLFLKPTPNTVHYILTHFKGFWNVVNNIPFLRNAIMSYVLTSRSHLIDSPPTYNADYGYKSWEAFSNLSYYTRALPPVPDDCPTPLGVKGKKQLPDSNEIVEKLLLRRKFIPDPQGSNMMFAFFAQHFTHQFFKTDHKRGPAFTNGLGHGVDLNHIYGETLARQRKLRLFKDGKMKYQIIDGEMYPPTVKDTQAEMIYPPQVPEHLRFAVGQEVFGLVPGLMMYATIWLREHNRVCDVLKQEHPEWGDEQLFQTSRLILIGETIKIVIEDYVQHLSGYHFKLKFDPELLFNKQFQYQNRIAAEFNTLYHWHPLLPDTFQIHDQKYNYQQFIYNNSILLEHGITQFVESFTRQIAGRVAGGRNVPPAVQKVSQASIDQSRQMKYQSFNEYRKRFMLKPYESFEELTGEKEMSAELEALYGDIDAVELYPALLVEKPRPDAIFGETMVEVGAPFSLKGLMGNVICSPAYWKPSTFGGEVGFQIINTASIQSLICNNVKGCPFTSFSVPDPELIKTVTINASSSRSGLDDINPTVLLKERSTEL

[4] = upper part of sheet (extract series), positive control also given in μM
[5] = lower part of sheet (compound series)

Compound: O=C(O)CC(=O)OC[C@H]1O[C@@H](Oc2c(-c3ccc(O)c(O)c3)oc3cc(O)cc(O)c3c2=O)[C@H](O)[C@@H](O)[C@@H]1O
- inhibition of fluorescent AGEs formation (BSA-抗糖化), single replicate ([1]; 15.625 µM): 10.51% and 15.35% and 23.11%
- inhibition of fluorescent AGEs formation (BSA-抗糖化), single replicate ([1]; 31.25 µM): 5.08% and 5.86% and 10.67%
- inhibition of fluorescent AGEs formation (BSA-抗糖化), 平均 (mean) ([1]; 31.25 µM): 7.20%
- inhibition of fluorescent AGEs formation (BSA-抗糖化), single replicate ([1]; 62.5 µM): 17.13% and 15.89% and 16.80%
- inhibition of fluorescent AGEs formation (BSA-抗糖化), 平均 (mean) ([1]; 62.5 µM): 16.61%
- inhibition of fluorescent AGEs formation (BSA-抗糖化), single replicate ([1]; 125 µM): 26.98% and 29.78% and 30.07%
- inhibition of fluorescent AGEs formation (BSA-抗糖化), 平均 (mean) ([1]; 125 µM): 28.94%
- inhibition of fluorescent AGEs formation (BSA-抗糖化), single replicate ([1]; 250 µM): 45.50% and 47.09% and 47.76%
- inhibition of fluorescent AGEs formation (BSA-抗糖化), 平均 (mean) ([1]; 250 µM): 46.78%
- inhibition of fluorescent AGEs formation (BSA-抗糖化), single replicate ([1]; 500 µM): 61.62% and 62.32% and 63.30%
- inhibition of fluorescent AGEs formation (BSA-抗糖化), 平均 (mean) ([1]; 500 µM): 62.41%
- inhibition of fluorescent AGEs formation (BSA-抗糖化), single replicate ([1]; 1000 µM): 77.56% and 77.94% and 77.85%
- inhibition of fluorescent AGEs formation (BSA-抗糖化), 平均 (mean) ([1]; 1000 µM): 77.78%
- inhibition of fluorescent AGEs formation (BSA-抗糖化), single replicate ([1]; 2000 µM): 88.53% and 88.63% and 88.83%
- inhibition of fluorescent AGEs formation (BSA-抗糖化), 平均 (mean) ([1]; 2000 µM): 88.66%
- inhibition of fluorescent AGEs formation (BSA-抗糖化), single replicate ([1]; 4000 µM): 94.35% and 94.74% and 94.79%
- inhibition of fluorescent AGEs formation (BSA-抗糖化), 平均 (mean) ([1]; 4000 µM): 94.62%
- IC50 ([1]; BSA-抗糖化, mean of 3 replicate IC50, read-out: IC50µM, mean): 288 µM
- IC50 ([1]; BSA-抗糖化, per replicate curve, read-out: IC50µM, single replicate): 306 µM and 289 µM and 270 µM

Compound: Cc1c(C)c2c(c(C)c1O)CCC(C)(C(=O)O)O2 (centres unmarked) [Trolox, 6-hydroxyl-2,5,7,8-tetra-methylchroman-2-carboxylic acid, reference compound]
- DPPH scavenging (sheet "DPPH"), single replicate (DPPH· scavenging; 15.625 ug/ml): 32.84% and 29.98% and 33.39%
- DPPH scavenging (sheet "DPPH"), single replicate (DPPH· scavenging; 31.25 ug/ml): 58.95% and 55.65% and 57.84%
- DPPH scavenging (sheet "DPPH"), single replicate (DPPH· scavenging; 62.5 ug/ml): 84.01% and 87.99% and 89.81%
- DPPH scavenging (sheet "DPPH"), single replicate (DPPH· scavenging; 125 ug/ml): 89.42% and 88.80% and 89.64%
- DPPH scavenging (sheet "DPPH"), single replicate (DPPH· scavenging; 250 ug/ml): 88.55% and 89.46% and 90.81%
- DPPH scavenging (sheet "DPPH"), single replicate (DPPH· scavenging; 500 ug/ml): 93.00% and 92.15% and 93.91%
- DPPH scavenging (sheet "DPPH"), single replicate (DPPH· scavenging; 1000 ug/ml): 95.26% and 95.19% and 95.32%
- IC50 (DPPH· scavenging; mean ± SD, n = 3): 159 ± 4.47 µM
- IC50 (DPPH· scavenging; [4]): 98.8 µM
- ABTS scavenging rate ([2]; 7.8125 ug/ml, single replicate wells): 8.24% and 9.20% and 7.27%
- ABTS scavenging rate ([2]; 15.625 ug/ml, single replicate wells): 16.72% and 19.40% and 19.88%
- ABTS scavenging rate ([2]; 31.25 ug/ml, single replicate wells): 61.34% and 52.07% and 52.74%
- ABTS scavenging rate ([2]; 62.5 ug/ml, single replicate wells): 94.28% and 95.58% and 92.94%
- ABTS scavenging rate ([2]; 125 ug/ml, single replicate wells): 96.25% (2×) and 96.22%
- ABTS scavenging rate ([2]; 250 ug/ml, single replicate wells): 96.32% and 96.28% and 96.27%
- ABTS scavenging rate ([2]; 0.5mM series, concentration 7.8125 (unit not given), replicate wells): 5.05% and 4.88% and 5.29%
- ABTS scavenging rate ([2]; 0.5mM series, concentration 15.625 (unit not given), replicate wells): 12.72% and 13.81% and 12.64%
- ABTS scavenging rate ([2]; 0.5mM series, concentration 31.25 (unit not given), replicate wells): 31.58% and 33.31% and 33.45%
- ABTS scavenging rate ([2]; 0.5mM series, concentration 62.5 (unit not given), replicate wells): 67.91% and 69.65% and 70.29%
- ABTS scavenging rate ([2]; 0.5mM series, concentration 125 (unit not given), replicate wells): 99.61% and 99.52% and 99.85%
- ABTS scavenging rate ([2]; 0.5mM series, concentration 250 (unit not given), replicate wells): 99.86% and 99.73% and 99.90%
- ABTS scavenging rate ([2]; 0.5mM series, concentration 500 (unit not given), replicate wells): 99.85% and 99.75% and 99.73%
- ABTS scavenging rate ([2]; 500 ug/ml, single replicate wells): 96.17% and 96.23% and 96.35%
- IC50 ([2]; mean ± SD, n = 3): 145.7 ± 1.22 µM
- IC50 [2, 4]: 111 µM
- 标准曲线对应浓度 mM FeSO4 (FRAP, FeSO4 equivalent from standard curve) ([3]; 0.15 mM (37.5 μg/ml)): 0.9597 mM FeSO4 and 0.8823 mM FeSO4 and 0.8550 mM FeSO4
- 标准曲线对应浓度 mM FeSO4, mean ([3]; 0.15 mM (37.5 μg/ml)): 0.8990 mM FeSO4
- 标准曲线对应浓度 mM FeSO4 (FRAP, FeSO4 equivalent from standard curve) ([3]; 0.3 mM (75 μg/ml)): 1.6552 mM FeSO4 and 1.6329 mM FeSO4 and 1.5219 mM FeSO4
- 标准曲线对应浓度 mM FeSO4, mean ([3]; 0.3 mM (75 μg/ml)): 1.6033 mM FeSO4
- 标准曲线对应浓度 mM FeSO4 (FRAP, FeSO4 equivalent from standard curve) ([3]; 0.6 mM (150 μg/ml)): 3.1630 mM FeSO4 and 2.8987 mM FeSO4 and 2.7627 mM FeSO4
- 标准曲线对应浓度 mM FeSO4, mean ([3]; 0.6 mM (150 μg/ml)): 2.9415 mM FeSO4
- 标准曲线对应浓度 mM FeSO4 (FRAP, FeSO4 equivalent from standard curve) ([3]; 0.9 mM (225 μg/ml)): 4.4046 mM FeSO4 and 4.2357 mM FeSO4 and 4.0364 mM FeSO4
- 标准曲线对应浓度 mM FeSO4, mean ([3]; 0.9 mM (225 μg/ml)): 4.2256 mM FeSO4
- 标准曲线对应浓度 mM FeSO4 (FRAP, FeSO4 equivalent from standard curve) ([3]; 1.2 mM (300 μg/ml)): 5.8342 mM FeSO4 and 5.5270 mM FeSO4 and 5.3675 mM FeSO4
- 标准曲线对应浓度 mM FeSO4, mean ([3]; 1.2 mM (300 μg/ml)): 5.5762 mM FeSO4
- 标准曲线对应浓度 mM FeSO4 (FRAP, FeSO4 equivalent from standard curve) ([3]; 1.5 mM (375 μg/ml)): 6.9332 mM FeSO4 and 6.7909 mM FeSO4 and 6.4969 mM FeSO4
- 标准曲线对应浓度 mM FeSO4, mean ([3]; 1.5 mM (375 μg/ml)): 6.7403 mM FeSO4
- FRAP EC1 [3, 5]: 559.8 ± 19.4 µM
- FRAP EC1 ([3]; mean ± SD, n = 3): 559.8 ± 19.4 µM
- FRAP EC1 ([3]; upper part of sheet (extract series)): 55.35 ± 5.22 µg/mL

Compound: O=c1cc(-c2ccc(O)cc2)oc2c(C3OC(CO)C(O)C(O)C3O)c(O)c(C3OCC(O)C(O)C3O)c(O)c12 (centres unmarked) [compound 14, Vicenin-1]
- IC50 (DPPH· scavenging; mean ± SD, n = 3): > 5000 µM
- IC50 ([2]; mean ± SD, n = 3): 96.4 ± 2.11 µM
- FRAP EC1 [3, 5]: >5000 µM
- COX-2 inhibition (COX-2; 31.25 μM, listed as T6, 31.25 µM): -4.26%
- COX-2 inhibition (COX-2; 62.5 μM, listed as T6, 62.5 µM): -25.49% and -4.46%
- COX-2 inhibition (COX-2; 125 μM, listed as T6, 125 µM): -10.40%
- COX-2 inhibition (COX-2; 500 μM, listed as T6, 500 µM): -29.71% and -20.21%
- COX-2 inhibition (COX-2; 1000 μM, listed as T6, 1000 µM): -42.43% and -38.19%
- IC50 ([1]; mean ± SD, n = 3, read-out: BSA-glycation IC50): 256 ± 5.44 µM
